Measured values as given in US20260183297A1, “SELECTION OF PATIENTS FOR THE TREATMENT OF FADS1-MEDIATED DISEASES OR DISORDERS USING FADS-1 INHIBITORS” (AMGEN INC., priority 2022, published 2026).
Where two headings read alike, the source gives them in different places.

Key:
FADS1 [1] = molecular target: T1, FADS1 (Mus musculus, UniProt Q920L1); assay: In vivo FADS1 activity measurement using the liver (13C5-DGLA to 13C5-AA conversion); conditions: DIO mice, single oral dose 30 mg/kg, 24 hours after dosing; for inhibition at 30 mg/kg: mouse, read-out: Liver Avg % Inhibition
T1 construct: Liver from ^13C5-DGLA dosed DIO mice was collected for pharmacodynamic (PD) analysis; from tissue; host or cells: living DIO C57Bl/6 mice; 13C5-DGLA to 13C5-AA conversion read in liver (A4) or blood plasma (A5)
T1 sequence (Q920L1 1-447): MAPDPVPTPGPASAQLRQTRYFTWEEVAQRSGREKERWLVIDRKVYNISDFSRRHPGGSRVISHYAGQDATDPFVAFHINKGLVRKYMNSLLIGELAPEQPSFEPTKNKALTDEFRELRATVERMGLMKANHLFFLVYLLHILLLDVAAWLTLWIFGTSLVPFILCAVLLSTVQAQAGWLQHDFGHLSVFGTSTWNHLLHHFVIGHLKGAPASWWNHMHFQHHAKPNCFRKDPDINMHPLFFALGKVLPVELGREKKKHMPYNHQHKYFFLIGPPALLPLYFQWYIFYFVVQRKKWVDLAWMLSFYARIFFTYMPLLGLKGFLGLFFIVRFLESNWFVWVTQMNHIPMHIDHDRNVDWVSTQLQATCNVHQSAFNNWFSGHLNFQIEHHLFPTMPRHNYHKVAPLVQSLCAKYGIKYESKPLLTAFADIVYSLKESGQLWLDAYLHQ
Protocol: Mice were then dosed by intraperitoneal injection with a solution comprising of a mixture of 0.1 ml solution of ^13C5-DGLA (2 mM in 18.42 mM Na2CO3 buffer). Necropsy were performed at 30 minutes post ^13C5-DGLA dosing. Liver from ^13C5-DGLA dosed DIO mice was collected for pharmacodynamic (PD) analysis and EDTA plasma was collected for compound exposure determination. For PD analysis, 150 mg of frozen liver tissue were premixed with ALA-D14 as an internal standard. Liver samples were homogenized and extracted twice with chloroform/methanol (2:1) solution. The organic phases for the two extractions were pooled and evaporated to dryness under nitrogen gas. The liver extract was resuspended in 200 μl 2N NaOH and saponified at 65° C. for 1 hour. After cooling to room temperature, 100 μl of formic acid was added and the mixture was subjected to two consecutive extractions with a chloroform:methanol (2:1) solution. The pooled organic phases were evaporated to dryness under nitrogen gas and resuspended in a solution containing acetonitrile and methanol at a ratio of 1:1. The extracts were then analyzed by LC/MS/MS for the following analytes: ^13C5-DGLA, ^13C5-AA, with ALA-d14 as the internal standard. The sample (20 μl) was injected onto a Poroshell 120 EC-C18 3.0×50 mm, 1.9 μm id column (Agilent, Santa Clara, CA). The analyte peak areas were quantified using the Analyst software (SCIEX, Framingham, […]). The residual in vivo FADS1 activity was calculated by taking the percent of substrate to product conversion normalized to the vehicle group to determine the percent of control (POC) and the percent inhibition relative to control (vehicle).
To determine the degree of FADS1 inhibition, the in vivo FADS1 activity as the percent of conversion calculated using the following equation: […]
The data were then normalized to the vehicle group to determine the percent of inhibition relative to control (vehicle) by the following equation: […]
To calculate the in vivo potency, dose response graphs were generated by plotting the plasma concentration of the test compound determined from the PK analysis on the abscissa, against the percent of control (POC, relative to vehicle) of the FADS1 activity for each mouse. The data points were then fitted by using the log(inhibitor) vs response nonlinear regression algorithm using GraphPad Prism (version 8.4.3, San Diego CA) to calculate the in vivo IC50 (total).
Free (unbound) IC50 and IC90 values were calculated by first calculating the unbound compound concentration in the plasma by multiplying the plasma concentration of test compound with the fraction unbound (fu) value in mouse plasma determined in the plasma protein binding study. A dose response curve was used to determine the unbound IC50 and IC90 by plotting the unbound plasma concentration of the compound on the abscissa, against the percent of control (POC, relative to vehicle) of FADS1 activity for each mouse. The data points were then fitted with a log (inhibitor) versus response nonlinear regression algorithm using GraphPad Prism (version 8.4.3, San Diego, CA) to calculate the in vivo IC50 (Free).

FADS1 [2] = molecular target: T1, FADS1; assay: In vivo FADS1 activity measurement using blood plasma (13C5-DGLA to 13C5-AA conversion); conditions: for Plasma Avg % Conversion / inhibition at 30 mg/kg: DIO mice, single oral dose 30 mg/kg, 24 hours after dosing
Protocol: FADS1 activity in the presence of Compounds B-E was also measured using blood plasma (in addition to using the liver). The above procedures were perforned to measure the in vivo activity of FADS1 using the liver. The following general procedures were used to measure FADS1 activity using blood plasma. Diet-induced obese (DIO) mice that were on 12 weeks of high fat diet were used to determine the pharmacokinetic (PK) and pharmacodynamic (PD) properties of test compounds. To determine the target coverage at 24 hours after dosing with a test compound (e.g., Compounds B-E, shown below), mice were IP dosed with 0.1 ml solution of ^13C5-DGLA (2 mM in 18.42 mM Na2CO3 buffer). Necropsy were performed at 30 minutes post ^13C5-DGLA dosing. EDTA Plasma was collected for PK and PD analysis.
For PD analysis, 50 μl of plasma or standards (pooled untreated mouse plasma with ^13C5-DGLA and ^13C5-AA added at concentration of 4.57 nM to 10 uM) were mixed with 10 μl of 90% methanol and 10 μl of 50 μg/mL of ALA-D14 as an internal standard (100 μM alpha-linolenic acid-d14 (ALA-d14, Cayman Chemical)) in a 96 well plate. 490 μl of chloroform:methanol (2:1) were added to each well. Plates were plated on a shaker for 5 min prior to adding 66.5 μl water. The plates were shaken for another 5 minutes, followed by centrifugation at 2000 RPM for 5 minutes. The bottom organic layer was transferred to a clean 96 well plate. 333 ul of chloroform:methanol (2:1) were added to the to the remaining liquid phase in the original plate. After 5 min of shaking, the plate was centrifuged at 2000 RPM for 5 minutes. The bottom layer was collected and combined with the first bottom layer. The combined layers were evaporated to dryness under a constant stream of nitrogen gas. After the plate has been dried, 100 μl of 2N NaOH was added to the mixture for subsequent saponification at 65° C. for 1 hour. The samples were then cooled to room temperature and the mixture was then acidified with 50 μl of formic acid followed by two consecutive chloroform:methanol (2:1) extractions. 500 μl of Chloroform:methanol (2:1) was added and the mixture thoroughly mixed by shaking. The plate was then centrifuged at 2,000 rpm for 5 min. The bottom chloroform phase was transferred to a new 2 mL 96 well plate and the remaining aqueous layer was extracted with another 250 μl of chloroform:methanol (2:1). The organic extracts were combined, and the solvent was evaporated to dryness by placing the plate under nitrogen. Extracts were then dissolved in 200 μl of acetonitrile/methanol (1:1). The plate was placed on a shaker for 30 minutes to ensure thorough mixing and dissolution of the extracted fatty acids. The plate was then centrifuged at 2000 RPM for 5 minutes. 80 μl of the samples were transferred to a new 96 well polypropylene plate for analysis on a LC-MS/MS for the following analytes: ^13C5-DGLA, ^13C5-AA, with ALA-d14 as the internal standard. Briefly describing the LC-MS/MS method: 20 μl of sample was injected onto a Poroshell 120 EC-C18 3.0×50 mm, 1.9 μm id column. Mobile phases were 80% acetonitrile containing 5 mM ammonium acetate for mobile phase A and 99.5% acetonitrile containing 5 mM ammonium acetate for mobile phase B. The LC gradient was a 3 min long method at a flow rate of 0.4 mL/minute consisting of 45% B at 0 to 0.5 min, followed by a 45% B to 100% B from 0.5 to 2.0 min; the system was then maintained at 100% B from 2.0 min to 2.5 min and returned to 45% B at 2.6 min and maintained until end of the method. The analyte peak areas were quantified by using the SCIEX Analyst software. To determine the degree of FADS1 inhibition, the in vivo FADS1 activity, POC, percent of inhibition, and in vivo IC50 values are calculated as described above for liver FADS1 activity measurement.

[3] = HFD-fed DIO C57BL/6J mice; cited from earlier work
[4] = C57BL/6 DIO mice; cited from earlier work

Liver Avg % Conversion (FADS1 [1]) [%]	inhibition at 30 mg/kg (FADS1 [1]) [%]	Plasma Avg % Conversion (FADS1 [2]) [%]	inhibition at 30 mg/kg (FADS1 [2]; mouse) [%]	Structure (SMILES)	also measured
34.5	58.7	25.1	58.3	O=c1c(-c2ccc(OCC(F)(F)F)cc2)c(C(F)(F)F)nc2cc(CO)ccn12 [Compound D]	
78.7	5.8	58.1	3.7	COc1ccn2c(=O)c(-c3ccc(O[C@H](C)C#N)cc3)c(C(F)(F)F)nc2n1 [Compound E]	
				O=c1c(-c2cnn(CC(F)(F)C(F)(F)F)c2)c(C(F)(F)F)nc2cc(OCF)ccn12 [Compound F]	Free (unbound) in vivo IC95 (FADS1 [2]; blood plasma, unbound plasma concentration): 16.4 nM; IC50 (FADS1 [2]; blood plasma, unbound plasma concentration, read-out: Free (unbound) in vivo IC50): 5.62 nM; IC90 (FADS1 [2]; mouse, blood plasma, unbound plasma concentration, read-out: Free (unbound) in vivo IC90): 12.4 nM
				COc1ccc2c(c1)c(CC(=O)O)c(C)n2C(=O)c1ccc(Cl)cc1 [indomethacin]	body weight [3]: reduce body weight; insulin sensitivity [3]: improve insulin sensitivity
				Cc1c(C(=O)NN2CCCCC2)nn(-c2ccc(Cl)cc2Cl)c1-c1ccc(Cl)cc1 [rimonabant]	adipose tissue inflammation [4]: reduced adipose tissue inflammation; body weight [4]: reduce body weight; physical activity [4]: increased physical activity only in the light cycle
